pIC50, pKi: −log10 of the molar value. The source made the active and inactive calls. No cut-off for these calls is given here.
How the values were obtained:
HCT-116 = test: Cytotoxicity against human HCT116 cells up to 50 uM after 72 hrs by resazurin-based fluorimetric assay; format: functional, cell-based
[1] = Drug degradation in DMSO assessed as autoxidation at 4 degC incubated under dark condition for 6 months; format: physicochemical; settings: 4383 h
K562 [2] = test: Cytotoxicity against human K562 cells up to 50 uM after 72 hrs by resazurin-based fluorimetric assay; format: functional, cell-based
Bcl-2-like protein 1 [3] = target: T1, Bcl-2-like protein 1 (Homo sapiens, UniProt Q07817); test: Displacement of fluorescein-labeled BAK from His-tagged BCL-XL (unknown origin) after 1 hr by fluorescence polarization assay
T1 sequence (Q07817 whole entry): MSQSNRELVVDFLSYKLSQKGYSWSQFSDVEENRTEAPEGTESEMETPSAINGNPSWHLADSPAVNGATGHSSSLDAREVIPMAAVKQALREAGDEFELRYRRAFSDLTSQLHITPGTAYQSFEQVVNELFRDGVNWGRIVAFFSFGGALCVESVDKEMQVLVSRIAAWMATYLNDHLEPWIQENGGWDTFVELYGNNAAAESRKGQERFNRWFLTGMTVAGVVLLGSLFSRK

[4] = Drug degradation assessed as conversion to ferrugineic acid F and ferrugineic acid G at 4 degC incubated under dark condition for 3 to 6 months; format: physicochemical
[5] = Drug degradation assessed as conversion to ferrugineic acid H and ferrugineic acid I at 4 degC incubated under dark condition for 3 to 6 months; format: physicochemical
[6] = target: T2, Induced myeloid leukemia cell differentiation protein Mcl-1 (Homo sapiens, UniProt Q07820); test: Displacement of fluorescein-labeled BID from His-tagged MCL-1 (unknown origin) at 100 uM after 1 hr by fluorescence polarization assay relative to control
T2 sequence (Q07820 whole entry): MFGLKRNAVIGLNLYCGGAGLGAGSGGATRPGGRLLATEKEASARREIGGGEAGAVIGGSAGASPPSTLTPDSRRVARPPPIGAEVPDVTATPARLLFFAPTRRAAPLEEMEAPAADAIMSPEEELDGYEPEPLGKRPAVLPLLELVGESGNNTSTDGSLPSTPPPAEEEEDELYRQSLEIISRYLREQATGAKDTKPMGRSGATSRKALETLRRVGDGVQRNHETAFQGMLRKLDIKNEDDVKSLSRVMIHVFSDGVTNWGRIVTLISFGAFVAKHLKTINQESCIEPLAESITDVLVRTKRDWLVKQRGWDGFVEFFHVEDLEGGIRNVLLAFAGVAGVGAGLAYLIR

Bcl-2-like protein 1 [7] = target: T1, Bcl-2-like protein 1; test: Displacement of fluorescein-labeled BAK from His-tagged BCL-XL (unknown origin) at 100 uM after 1 hr by fluorescence polarization assay relative to control
[8] = Drug degradation assessed as conversion to ferrugineic acid F and ferrugineic acid G under diffuse daylight condition at 25 degC for 1 month; format: physicochemical; settings: 730.5 h
[9] = Drug degradation assessed as conversion to ferrugineic acid H and ferrugineic acid I under diffuse daylight condition at 25 degC for 1 month; format: physicochemical; settings: 730.5 h
[10] = target: T2, Induced myeloid leukemia cell differentiation protein Mcl-1; test: Displacement of fluorescein-labeled BID from His-tagged MCL-1 (unknown origin) after 1 hr by fluorescence polarization assay
K562 [11] = test: Cytotoxicity against human K562 cells after 72 hrs by resazurin-based fluorimetric assay; format: functional, cell-based; settings: K562, 72 h
[12] = Cytotoxicity against human HCT116 cells after 72 hrs by resazurin-based fluorimetric assay; format: functional, cell-based; settings: HCT-116, 72 h

Row | Compound | Activity (HCT-116) | Stability [1] | Activity (K562 [2]) | pKi (Bcl-2-like protein 1 [3]) | Stability [4] | Stability [5] | inhibition [6] [%] | inhibition (Bcl-2-like protein 1 [7]) [%] | Stability [8] | Stability [9] | pKi [10] | pIC50 (K562 [11]) | pIC50 [12]
1 | O=C(O)[C@@H]1C=C[C@@H]2C[C@H]3[C@H](CCCc4ccc(O)cc4)[C@H]4C=C[C@@H]1[C@@H]2[C@H]43 (relative stereo) | inactive | Stable | inactive | < 4.00 | Unstable | Unstable | 0 | 22 | Unstable | Unstable | – | – | –
2 | O=C(O)[C@@H]1C=C[C@@H]2C[C@H]3[C@H](CCCCCc4ccc(O)cc4)[C@H]4C=C[C@@H]1[C@@H]2[C@H]43 (relative stereo) | inactive | Stable | inactive | 4.72 | Unstable | Unstable | 85 | 60 | Unstable | Unstable | 4.85 | – | –
3 | O=C(O)[C@@H]1C=C[C@@H]2C[C@H]3[C@H](CCCCCCCc4ccc(O)cc4)[C@H]4C=C[C@@H]1[C@@H]2[C@H]43 (relative stereo) | inactive | Stable | inactive | 4.90 | – | – | 82 | 93 | – | – | 4.89 | – | –
4 | O=C(O)[C@@H]1C=C[C@@H]2C[C@H]3[C@H](CCCc4ccc(O)c(O)c4)[C@H]4C=C[C@@H]1[C@@H]2[C@H]43 (relative stereo) | inactive | Stable | inactive | < 4.00 | – | – | 82 | 39 | – | – | 5.28 | – | –
5 | O=C(O)[C@@H]1C=C[C@@H]2C[C@H]3[C@H](CC/C=C/Cc4ccc(O)cc4)[C@H]4C=C[C@@H]1[C@@H]2[C@H]43 (relative stereo) | inactive | Stable | inactive | – | – | – | 14 | 20 | – | – | – | – | –
6 | O=C(O)/C=C/[C@H]1[C@H]2C=C[C@H]3[C@@H]1C[C@H]1[C@H](CCCc4ccc(O)cc4)[C@@H]2[C@@H]31 (relative stereo) | inactive | – | inactive | < 4.00 | – | – | 0 | 22 | – | – | – | – | –
7 | O=C(O)C1=CC(=O)[C@@H]2C[C@H]3[C@H](CCCc4ccc(O)cc4)[C@H]4C=C[C@@H]1[C@@H]2[C@H]43 (relative stereo) | inactive | – | inactive | – | – | – | – | – | – | – | – | – | –
8 | O=C(O)C1=C[C@@H](O)[C@@H]2C[C@H]3[C@H](CCCc4ccc(O)cc4)[C@H]4C=C[C@@H]1[C@@H]2[C@H]43 (relative stereo) | inactive | – | inactive | – | – | – | 0 | 7 | – | – | – | – | –
9 | O=C(O)C1=C[C@H](O)[C@@H]2C[C@H]3[C@H](CCCCCc4ccc(O)cc4)[C@H]4C=C[C@@H]1[C@@H]2[C@H]43 (relative stereo) | – | – | – | – | – | – | 3 | – | – | – | – | – | –
10 | CCC1=C[C@@H]2CN(C1)Cc1c([nH]c3ccccc13)[C@@](C(=O)OC)(c1cc3c(cc1OC)N(C)[C@H]1[C@@](O)(C(=O)OC)[C@H](OC(C)=O)[C@]4(CC)C=CCN5CC[C@]31[C@@H]54)C2 [VINORELBINE] | – | – | – | – | – | – | – | – | – | – | – | 8.22 | 7.82

— ChEMBL document CHEMBL3297727, “Endiandric acid analogues from Beilschmiedia ferruginea as dual inhibitors of Bcl-xL/Bak and Mcl-1/Bid interactions” (J Nat Prod, 2014)
